From PubChem BioAssay (NCI)
Several values for one entry are separate records, joined by “and”; a condition that tells them apart may be missing. Equal entries are not always repeated.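 Interpolation was linear, between the two tested concentrations surrounding the appropriate level; five concentrations were tested over 48 hours in 96-well plates. GI50 = concentration required for 50% inhibition of growth. Definition used: TGI = concentration required for complete inhibition of growth.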

Legend:
Test in all cases: inhibition of tumour cell growth, NCI panel, 48 h
SW-620 colon = tested on: SW-620 colon
U251 CNS = tested on: U251 CNS
HT29 colon = tested on: HT29 colon
NCI/ADR-RES ovarian = tested on: NCI/ADR-RES ovarian
HOP-62 NSCLC = tested on: HOP-62 NSCLC
HL-60(TB) leukemia = tested on: HL-60(TB) leukemia
OVCAR-5 ovarian = tested on: OVCAR-5 ovarian
HCT-15 colon = tested on: HCT-15 colon
SNB-75 CNS = tested on: SNB-75 CNS
OVCAR-3 ovarian = tested on: OVCAR-3 ovarian

Row | Compound | GI50 (SW-620 colon) | TGI (SW-620 colon) | GI50 (U251 CNS) | TGI (U251 CNS) | GI50 (HT29 colon) | TGI (HT29 colon) | GI50 (NCI/ADR-RES ovarian) | TGI (NCI/ADR-RES ovarian) | TGI (HOP-62 NSCLC) | GI50 (HL-60(TB) leukemia) | TGI (HL-60(TB) leukemia) | GI50 (OVCAR-5 ovarian) | TGI (OVCAR-5 ovarian) | TGI (HCT-15 colon) | GI50 (SNB-75 CNS) | TGI (SNB-75 CNS) | GI50 (OVCAR-3 ovarian) | TGI (OVCAR-3 ovarian) | GI50 (HOP-62 NSCLC) | GI50 (HCT-15 colon)
1 | COc1ccc(Cn2c3c(cc(OS(=O)(=O)C(F)(F)F)c2=O)Cc2ccccc2-3)cc1 | 5.29 µM | 50 µM and > 100 µM | 6.55 µM | 50 µM and > 100 µM | 79 µM | > 100 µM | 3.03 µM | 50 µM and > 100 µM | 50 µM | 3.6 µM | 46.2 µM and 17 µM | > 100 µM | 50 µM and > 100 µM | 50 µM and > 100 µM | > 100 µM | > 100 µM | 5.12 µM | 50 µM and > 100 µM | – | –
2 | Cc1ccc2nc(-c3ccc(N(C)C)c(Br)c3)cn2c1 | 42.3 µM | > 100 µM | 7.19 µM | > 100 µM | 7.02 µM | > 100 µM | > 100 µM | > 100 µM | > 100 µM | 1.61 µM | > 100 µM | > 100 µM | > 100 µM | > 100 µM | 31.3 µM | > 100 µM | > 100 µM | > 100 µM | > 100 µM | 4.19 µM
3 | CCC[n+]1cc2cc(OC)c(OC)cc2c2c1-c1cc3c(cc1C2)OCO3 | 2.83 µM | 23.7 µM | 0.211 µM | 3.57 µM | 5.03 µM | > 34.6 µM | 35.2 µM | > 100 µM | 19.7 µM | 11 µM | > 54.1 µM | 32.9 µM | 67.8 µM | > 100 µM | 0.843 µM | 4.52 µM | 0.955 µM | 5.78 µM | 3.92 µM | 46.9 µM
4 | CN1C(=O)N(C)C2C1NN=c1s/c(=C\c3ccc(F)cc3)c(=O)n12 (configuration not stated) | 1.86 µM | > 100 µM | 3.06 µM | > 100 µM | 0.951 µM | > 100 µM | 1.94 µM | > 100 µM | > 100 µM | 1.63 µM | 4.53 µM | 5.44 µM | > 100 µM | > 100 µM | 1.05 µM | 5.22 µM | 1.24 µM | 8.09 µM | 3.48 µM | 0.915 µM
5 | Cc1[nH]nc(C(=O)n2nc(N)c3ccccc32)c1[N+](=O)[O-] | > 100 µM | > 100 µM | > 57.2 µM | > 100 µM | > 100 µM | > 100 µM | > 100 µM | > 100 µM | > 100 µM | – | > 100 µM | > 100 µM | > 100 µM | > 100 µM | 26.9 µM | > 88.9 µM | > 100 µM | > 100 µM | > 100 µM | > 63.5 µM
6 | CCN(CC)C(=S)SC | – | > 100 µM | – | > 100 µM | – | > 100 µM | – | > 100 µM | > 100 µM | – | > 100 µM | – | > 100 µM | > 100 µM | – | > 100 µM | – | > 100 µM | – | –
7 | Cc1sc2nc3c4ccccc4c(NCCCN(C)C)nn3c(=O)c2c1C | 1.67 µM | 4.55 µM | 6.66 µM | 20 µM | 1.52 µM | 3.36 µM | 10.7 µM | 24.8 µM | 25.3 µM | 9.98 µM | 25.8 µM | 14.2 µM | 28.5 µM | 20.8 µM | 3.46 µM | 16.4 µM | 11.3 µM | 24.3 µM | 12.3 µM | 6.73 µM
8 | O=C1C(c2ccccc2)=[N+]([O-])c2ccccc21 | – | 22.3 µM | – | 28.7 µM | – | 42.1 µM | – | 36.3 µM | 37.4 µM | – | 42.2 µM | – | 43.1 µM | 37.9 µM | – | 37.5 µM | – | 29.1 µM | – | –
9 | CCn1c2ccc(O)cc2c2c(C)c3c[n+](C)ccc3c(C)c21 | 3.85 µM | > 100 µM | 0.307 µM | 9.72 µM | 13.2 µM | > 100 µM | 31.1 µM | > 100 µM | 21 µM | 40.8 µM | > 100 µM | 23.8 µM | > 100 µM | > 100 µM | 1.18 µM | 35.8 µM | 3.59 µM | 32.4 µM | 1.18 µM | 29.4 µM
10 | NC(=O)c1cc2c3ccccc3ccn2c1-c1ccccc1 | 0.0357 µM | 25 µM | 0.0475 µM | 14.2 µM | 0.412 µM | 9.12 µM | 0.0317 µM | 0.0919 µM | 18.8 µM | 0.242 µM | 2.96 µM | 5.6 µM | 36.7 µM | 11.9 µM | 0.758 µM | > 46.9 µM | 0.0272 µM | 0.072 µM | 0.446 µM | 0.0543 µM
11 | COc1cc2ncnc(Nc3ccc(F)c(Cl)c3)c2cc1NC(=O)/C=C/CN1CCCCC1 | 1.84 µM and 1.64 µM | 4.42 µM and 3.54 µM | 1.46 µM and 1.87 µM | 3.26 µM and 4.27 µM | 1.68 µM and 2.08 µM | 3.59 µM and > 7.79 µM | 1.48 µM and 1.12 µM | 7.15 µM and 6.37 µM | 5.65 µM and > 9.66 µM | 1.65 µM and 0.814 µM | 3.64 µM and 3.11 µM | 1.19 µM and 1.17 µM | 8.45 µM and > 8.15 µM | 4.6 µM and 3.81 µM | 1.03 µM and 1.25 µM | 6 µM and 6.47 µM | 1.14 µM and 1.21 µM | 2.45 µM and 3.24 µM | 2.11 µM and 3.02 µM | 1.07 µM and 1.12 µM
